Source: patent US20250275993A1, “GLYCOSYLATION INHIBITORS AS THERAPEUTICS FOR STROKE” (The Regents of the University of California, priority 2022, published 2025)

Legend:
[1] = system: NIH3T3 fibroblasts; experiment: NIH3T3 proliferation assay; type: cell-based, mouse; conditions: alone or in combination with growth factors
Method: (§1) Proliferation assays with fibroblasts were done in low-glucose DMEM containing 1% FBS, with or without 10 ng/ml bFGF, or 100 ng/ml human EGF and the assay was ended at day 3. ARPE-19 cells were gently lifted with 0.025% trypsin and plated in RtEGM media (Clonetics) containing 2% FBS, L-glutamine, human bFGF and GA-1000. Once cells were attached to plates, serum-free RtEGM media was used to maintain the cultures. For proliferation assays, 1500 human RPE cells were plated into 96-well plates in low-glucose DMEM containing 1% FBS. A673, U87MG, Calu6 and AML12 cells were grown until confluent and were then harvested and re-suspended in appropriate assay media. For proliferation assays, cells were plated at the density of 1000-2000 cells/well in low-glucose DMEM containing 5% FBS or otherwise stated. Bovine pituitary cells (pituitary folliculostellate cells) were isolated as previously described. For proliferation assays with human epidermal keratinocytes, human DMVECs and human dermal fibroblast cells, 1000 cells/well were plated in low-glucose DMEM containing 1% FBS with or without various growth factors. The assay was ended at day 3 for bovine pituitary cells and at day 4 for all the other cell types. […] Four days later, tumor cell growth was measured by the MTS assay (Promega, Madison, WI), a colorimetric assay that measures metabolic activity of viable cells. […]

[2] = system: O-glycan of BCEC lysates; experiment: O-glycan analysis in BCEC lysates (MALDI-Tof); type: cell-based, bovine; conditions: 40 μM ManN
Method: For O-glycan analysis, homogenized cell samples were treated with 50 mM NaOH in presence of 1M NaBH4 for 16 hrs at 45° C. The reaction mixture was neutralized using ice-cold 30% acetic acid slowly. The neutralized reaction mixture was then passed over Dowex 50-X cation exchange resin to remove sodium ion and lyophilized. Excess boric acid generated during neutralization was then removed by co-evaporation using acidified methanol and methanol respectively. Finally the O-glycan was purified by passing over C18 cartridge. Dried and purified O-glycan was then methylated and used for O-glycan analysis after permethylation. Permethylated samples were then dissolved in absolute methanol and mixed with SDHB (Super-DHB) MALDI matrix in 1:1 v/v ratio and spotted on maldi plate. Mass spectral data was acquired using Bruker AutoFlex mass spectrometer at positive, reflectron mode. The mass spectral data were analyzed and annotated using GlycoWork Bench software and masses matched with the proposed structures were annotated. The mono-isotopic ion intensities are taken for calculation.

[3] = system: AML12 liver cells; experiment: AML12 proliferation assay; type: cell-based, mouse
Method: as §1

[4] = system: vascular permeability in guinea pig skin; experiment: Vascular permeability assay (modified Miles assay); type: in vivo; conditions: ManN 1 ng-5 μg, VEGF 25 ng, intradermal
Method: Vascular permeability was assessed using a modified Miles assay. Hairless male guinea pigs (Crl: HA-Hrhr/IAF, 75 days old, 450-500 g, Charles River Laboratories) were anesthetized by intraperitoneal (i.p.) administration of xylazine (5 mg/kg) and ketamine (75 mg/kg). The animals then received an intravenous injection (penile vein) of 1 ml of 1% Evans blue dye. After 15 mins, intradermal injections (0.05 ml/per site) of different doses of ManN were administrated into the area of trunk posterior to the shoulder. All reagents were diluted in PBS for intradermal administration. 25 ng of VEGF165 per site was used as positive control. 30 mins after the intradermal injections, animals were euthanized by i.p. injection of pentobarbital (200 mg/kg). Skin tissues were dissected from the connective tissues and photographed.

[5] = system: β-Glucosidase; experiment: β-glucosidase activity assay; type: biochemical, almond; conditions: up to 2 mM
Method: a-mannosidase activity was measured using substrate p-nitrophenyl α-mannopyranoside (1 mM). Enzyme from Jack Bean (M7257) (final concentration of 0.077 U) was incubated at 37° C. in a final volume of 50 μl of 50 mM potassium phosphate buffer, pH 7.5. α-glucosidase was assayed with substrate p-nitrophenyl a-glucoside (7 mM). Enzyme from Saccharomyces cerevisiae-type 1 (Sigma, G5003) (final concentration of 0.1 U) was incubated at 37° C. in a final volume of 50 μl of PBS, pH 7.5. β-Glucosidase was assayed with substrate 4-nitrophenyl β-D-glucopyranoside (Roche). Enzyme from almond (Sigma, G0395) (final concentration of 0.002 U) was incubated at 37° C. in a final volume of 50 μl of PBS, pH 7.5 […]. The incubation was stopped by addition of an equal volume of acid-based stop solution (R&D systems, 895032). Enzymatic activity was measured at 405 nm. α-glucosidase from Saccharomyces cerevisiae type I (G5003) with p-nitrophenyl α-D-glucopyranoside (Sigma, N1377) as the substrate.

[6] = system: brain infarction; experiment: Middle cerebral artery occlusion (MCAO) stroke model; type: in vivo, mouse

`N[C@H](C=O)[C@@H](O)[C@H](O)[C@H](O)CO` [ManN, 2-Amino-2-deoxy-D-mannose] was tested, and the “proliferation of NIH3T3 cells” value [1] was “no increases in proliferation”, the O-glycosylation [2] was “overall decrease in O-glycosylation” and the “sensitivity of AML12 to ManN toxicity” value ([3]; 5 mM level of ManN) was “most sensitive one”. For the same compound, the “proliferation of AML12” value ([3]; alone or in combination with growth factors) was “no increases in proliferation”, the “induction of vascular permeability” value [4] was “no permeability-enhancing effects” and the “effect on β-glucosidase” value [5] was “No effect”. For the same compound, the “histopathological alterations (H&E), Day 4” value ([6]; 40 mg ManN Day -1, 1, 3) was “ameliorates histopathological alterations”, the “vascular density (CD31) in cerebral cortex affected by infarct, Day 6” value ([6]; 40 mg ManN Day -1, 1, 3, 5, p<0.001) was “significantly increased vascular density” and the “infarction area, Day 4 MRI, first and second experiment” value ([6]; 40 mg ManN oral gavage Day -1 and every 48 hours, 4 animals per group) was “markedly smaller infarction area”. For the same compound, the “overall infarction area, combined analysis” value ([6]; 4 days post-acute ischemic event, FIG. 12D) was “statistically significant effect of ManN treatment in reducing overall infarction area”, the “TTC staining of coronal slices at Day 4” value ([6]; FIG. 13C) was “lack of large regions of white staining” and the “CNS infarct volume at Day 4 (MRI), additional animals” value ([6]; p<0.001 vs vehicle, FIG. 13B) was “significantly reduced CNS infarct volume”. For the same compound, the “infarct area on Day 2 and Day 4 (MRI images)” value ([6]; vs vehicle (H2O), FIG. 13A) was “Reduction in infarct area is noticeable”.
